Measured values from the NIST ThermoML archive (doi:10.1021/acs.jced.6b00210).

Assay: xn = mol fraction of the nth substance listed
Conditions: 100 kPa, Liquid; for viscosity: Concentric cylinders viscometry; for mass density: Vibrating tube method

Nc1ccccc1 [aniline] + CCCC(C)O
Conditions	mass density [kg/m3]	viscosity [mPa·s]
293.15 K, x1 = 0.0811	824.5	3.55
293.15 K, x1 = 0.1599	839.5	3.23
293.15 K, x1 = 0.2399	855	3
293.15 K, x1 = 0.35	877	2.8
293.15 K, x1 = 0.44	895.5	2.71
293.15 K, x1 = 0.56	920.8	2.67
293.15 K, x1 = 0.65	940.4	2.72
293.15 K, x1 = 0.74	960.5	2.86
293.15 K, x1 = 0.8499	985.8	3.26
293.15 K, x1 = 0.9363	1006.3	3.79
293.15 K, x1 = 1	1021.7	4.37
298.15 K, x1 = 0.0811	820.3	3.03
298.15 K, x1 = 0.1599	835.3	2.74
298.15 K, x1 = 0.2399	850.8	2.53
298.15 K, x1 = 0.35	872.7	2.35
298.15 K, x1 = 0.44	891.1	2.28
298.15 K, x1 = 0.56	916.4	2.28
298.15 K, x1 = 0.65	935.9	2.34
298.15 K, x1 = 0.74	956	2.49
298.15 K, x1 = 0.8499	981.4	2.87
298.15 K, x1 = 0.9363	1001.9	3.31
298.15 K, x1 = 1	1017.4	3.8
303.15 K, x1 = 0.0811	816.1	2.61
303.15 K, x1 = 0.1599	831	2.34
303.15 K, x1 = 0.2399	846.5	2.12
303.15 K, x1 = 0.35	868.3	1.93
303.15 K, x1 = 0.44	886.7	1.86
303.15 K, x1 = 0.56	912	1.83
303.15 K, x1 = 0.65	931.6	1.87
303.15 K, x1 = 0.74	951.7	2.01
303.15 K, x1 = 0.8499	977	2.36
303.15 K, x1 = 0.9363	997.6	2.74
303.15 K, x1 = 1	1013.2	3.13
308.15 K, x1 = 0.0811	811.8	2.22
308.15 K, x1 = 0.1599	826.7	1.98
308.15 K, x1 = 0.2399	842.1	1.8
308.15 K, x1 = 0.35	863.9	1.65
308.15 K, x1 = 0.44	882.3	1.58
308.15 K, x1 = 0.56	907.6	1.562
308.15 K, x1 = 0.65	927.1	1.64
308.15 K, x1 = 0.74	947.2	1.78
308.15 K, x1 = 0.8499	972.7	2.09
308.15 K, x1 = 0.9363	993.3	2.44
308.15 K, x1 = 1	1009	2.75
313.15 K, x1 = 0.0811	807.5	1.84
313.15 K, x1 = 0.1599	822.3	1.64
313.15 K, x1 = 0.2399	837.6	1.5
313.15 K, x1 = 0.35	859.4	1.39
313.15 K, x1 = 0.44	877.8	1.359
313.15 K, x1 = 0.56	903	1.38
313.15 K, x1 = 0.65	922.6	1.46
313.15 K, x1 = 0.74	942.8	1.61
313.15 K, x1 = 0.8499	968.2	1.89
313.15 K, x1 = 0.9363	989	2.18
313.15 K, x1 = 1	1004.7	2.43
318.15 K, x1 = 0.0811	803.1	1.48
318.15 K, x1 = 0.1599	817.9	1.34
318.15 K, x1 = 0.2399	833.2	1.257
318.15 K, x1 = 0.35	854.9	1.18
318.15 K, x1 = 0.44	873.3	1.16
318.15 K, x1 = 0.56	898.6	1.21
318.15 K, x1 = 0.65	918.1	1.29
318.15 K, x1 = 0.74	938.3	1.44
318.15 K, x1 = 0.8499	963.8	1.7
318.15 K, x1 = 0.9363	984.6	1.93
318.15 K, x1 = 1	1000.4	2.14
323.15 K, x1 = 0.0811	798.7	1.19
323.15 K, x1 = 0.1599	813.3	1.11
323.15 K, x1 = 0.2399	828.6	1.06
323.15 K, x1 = 0.35	850.2	1.03
323.15 K, x1 = 0.44	868.5	1.03
323.15 K, x1 = 0.56	893.7	1.08
323.15 K, x1 = 0.65	913.3	1.17
323.15 K, x1 = 0.74	933.4	1.31
323.15 K, x1 = 0.8499	958.9	1.54
323.15 K, x1 = 0.9363	979.7	1.77
323.15 K, x1 = 1	995.5	1.96
